Results published in PubChem BioAssay (NCI).
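Interpolation was linear, between the two tested concentrations surrounding the appropriate level; five concentrations were tested over 48 hours in 96-well plates. GI50: concentration for 50% inhibition of growth. The concentration for full growth arrest is given as TGI.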

Tests used:
Experiment in all cases: NCI-60 cell line screen, 48 h
[1] = tested on: UO-31 renal
[2] = tested on: IGROV1 ovarian
[3] = tested on: CAKI-1 renal
[4] = tested on: SF-295 CNS
[5] = tested on: LOX IMVI melanoma
[6] = tested on: EKVX NSCLC
[7] = tested on: SK-MEL-2 melanoma
[8] = tested on: MOLT-4 leukemia
[9] = tested on: MCF7 breast
[10] = tested on: HT29 colon
[11] = tested on: PC-3 prostate
[12] = tested on: ACHN renal
[13] = tested on: HL-60(TB) leukemia
[14] = tested on: OVCAR-5 ovarian
[15] = tested on: HS 578T breast
[16] = tested on: SK-OV-3 ovarian
[17] = tested on: U251 CNS
[18] = tested on: M14 melanoma
[19] = tested on: KM12 colon
[20] = tested on: UACC-257 melanoma
[21] = tested on: NCI/ADR-RES ovarian
[22] = tested on: 786-0 renal
[23] = tested on: HCT-15 colon
[24] = tested on: SNB-75 CNS
[25] = tested on: K-562 leukemia
[26] = tested on: RPMI-8226 leukemia
[27] = tested on: NCI-H23 lung
[28] = tested on: OVCAR-3 ovarian
[29] = tested on: HCC-2998 colon
[30] = tested on: NCI-H460 lung
[31] = tested on: OVCAR-4 ovarian
[32] = tested on: TK-10 renal
[33] = tested on: MALME-3M melanoma
[34] = tested on: NCI-H226 lung
[35] = tested on: COLO 205 colon
[36] = tested on: UACC-62 melanoma
[37] = tested on: SW-620 colon
[38] = tested on: CCRF-CEM leukemia
[39] = tested on: OVCAR-8 ovarian
[40] = tested on: DU-145 prostate
[41] = tested on: SNB-19 CNS
[42] = tested on: T-47D breast
[43] = tested on: BT-549 breast
[44] = tested on: MDA-MB-435
[45] = tested on: SK-MEL-28 melanoma
[46] = tested on: HCT-116 colon
[47] = tested on: MDA-MB-231 breast
[48] = tested on: SK-MEL-5 melanoma
[49] = tested on: A549 NSCLC
[50] = tested on: HOP-92 NSCLC
[51] = tested on: HOP-62 NSCLC
[52] = tested on: SN12C renal
[53] = tested on: SF-539 CNS
[54] = tested on: RXF 393 renal
[55] = tested on: SF-268 CNS
[56] = tested on: A498 renal
[57] = tested on: NCI-H522 lung
[58] = tested on: SR leukemia

In the case of `Cc1ccc(C(CC(=O)c2ccccc2)C2C(=O)NC(=O)NC2=O)cc1` (configuration not stated), the GI50 [1] is reported as greater than 100 µM, the TGI [1] is reported as greater than 100 µM and the GI50 [2] is reported as greater than 100 µM. It also gave a TGI [2] greater than 100 µM, a GI50 [3] greater than 100 µM and a TGI [3] greater than 100 µM. It also gave a GI50 [4] greater than 100 µM, a TGI [4] greater than 100 µM and a GI50 [5] greater than 100 µM. The TGI [5] was greater than 100 µM, the GI50 [6] was greater than 100 µM and the TGI [6] was greater than 100 µM. The GI50 [7] was greater than 100 µM, the TGI [7] was greater than 100 µM and the GI50 [8] was greater than 100 µM. The TGI [8] was greater than 100 µM, the GI50 [9] was greater than 100 µM and the TGI [9] was greater than 100 µM. For the same compound, the GI50 [10] was greater than 100 µM, the TGI [10] was greater than 100 µM and the GI50 [11] was greater than 100 µM. For the same compound, the TGI [11] was greater than 100 µM, the GI50 [12] was greater than 100 µM and the TGI [12] was greater than 100 µM. For the same compound, the GI50 [13] was greater than 100 µM, the TGI [13] was greater than 100 µM and the GI50 [14] was greater than 100 µM. The TGI [14] was greater than 100 µM, the GI50 [15] was greater than 100 µM and the TGI [15] was greater than 100 µM. It also gave a GI50 [16] greater than 100 µM, a TGI [16] greater than 100 µM and a GI50 [17] greater than 100 µM. For the same compound, the TGI [17] was greater than 100 µM, the GI50 [18] was greater than 100 µM and the TGI [18] was greater than 100 µM. For the same compound, the GI50 [19] was greater than 100 µM, the TGI [19] was greater than 100 µM and the GI50 [20] was greater than 100 µM. The TGI [20] was greater than 100 µM, the GI50 [21] was greater than 100 µM and the TGI [21] was greater than 100 µM. The GI50 [22] was greater than 100 µM, the TGI [22] was greater than 100 µM and the GI50 [23] was greater than 100 µM. The TGI [23] was greater than 100 µM, the GI50 [24] was greater than 100 µM and the TGI [24] was greater than 100 µM. The GI50 [25] was greater than 100 µM, the TGI [25] was greater than 100 µM and the GI50 [26] was greater than 100 µM. For the same compound, the TGI [26] was greater than 100 µM, the GI50 [27] was greater than 100 µM and the TGI [27] was greater than 100 µM. The GI50 [28] was greater than 100 µM, the TGI [28] was greater than 100 µM and the GI50 [29] was greater than 100 µM. It also gave a TGI [29] greater than 100 µM, a GI50 [30] greater than 100 µM and a TGI [30] greater than 100 µM. It also gave a GI50 [31] greater than 100 µM, a TGI [31] greater than 100 µM and a GI50 [32] greater than 100 µM. It also gave a TGI [32] greater than 100 µM, a GI50 [33] greater than 100 µM and a TGI [33] greater than 100 µM. The GI50 [34] was greater than 100 µM, the TGI [34] was greater than 100 µM and the GI50 [35] was greater than 100 µM. The TGI [35] was greater than 100 µM, the GI50 [36] was greater than 100 µM and the TGI [36] was greater than 100 µM. The GI50 [37] was greater than 100 µM, the TGI [37] was greater than 100 µM and the GI50 [38] was greater than 100 µM. The TGI [38] was greater than 100 µM, the GI50 [39] was greater than 100 µM and the TGI [39] was greater than 100 µM. For the same compound, the GI50 [40] was greater than 100 µM, the TGI [40] was greater than 100 µM and the GI50 [41] was greater than 100 µM. It also gave a TGI [41] greater than 100 µM, a GI50 [42] greater than 100 µM and a TGI [42] greater than 100 µM. For the same compound, the GI50 [43] was greater than 100 µM, the TGI [43] was greater than 100 µM and the GI50 [44] was greater than 100 µM. The TGI [44] was greater than 100 µM, the GI50 [45] was greater than 100 µM and the TGI [45] was greater than 100 µM. The GI50 [46] was greater than 100 µM, the TGI [46] was greater than 100 µM and the GI50 [47] was greater than 100 µM. For the same compound, the TGI [47] was greater than 100 µM, the GI50 [48] was greater than 100 µM and the TGI [48] was greater than 100 µM. It also gave a GI50 [49] greater than 100 µM, a TGI [49] greater than 100 µM and a GI50 [50] greater than 100 µM. For the same compound, the TGI [50] was greater than 100 µM, the GI50 [51] was greater than 100 µM and the TGI [51] was greater than 100 µM. It also gave a GI50 [52] greater than 100 µM, a TGI [52] greater than 100 µM and a GI50 [53] greater than 100 µM. For the same compound, the TGI [53] was greater than 100 µM, the GI50 [54] was greater than 100 µM and the TGI [54] was greater than 100 µM. The GI50 [55] was greater than 100 µM, the TGI [55] was greater than 100 µM and the GI50 [56] was greater than 100 µM. The TGI [56] was greater than 100 µM, the GI50 [57] was greater than 100 µM and the TGI [57] was greater than 100 µM.

Work on `NC(=O)c1c(NC(=O)c2ccccn2)sc2c1CCC(=O)C2` yielded a GI50 [1] of 1.82 µM, a TGI [1] of 6.63 µM and a GI50 [2] of 3.24 µM. For the same compound, the TGI [2] was greater than 100 µM, the GI50 [5] was 3.72 µM and the TGI [5] was greater than 100 µM. For the same compound, the GI50 [6] was 5.01 µM, the TGI [6] was greater than 100 µM and the GI50 [8] was greater than 100 µM. For the same compound, the TGI [8] was greater than 100 µM, the GI50 [9] was 2.37 µM and the TGI [9] was greater than 100 µM. The TGI [11] was greater than 100 µM, the GI50 [12] was 2.62 µM and the TGI [12] was greater than 100 µM. For the same compound, the GI50 [14] was 3.05 µM, the TGI [14] was greater than 100 µM and the GI50 [15] was 4.22 µM. The TGI [15] was greater than 100 µM, the GI50 [16] was greater than 100 µM and the TGI [16] was greater than 100 µM. It also gave a GI50 [17] of 2.14 µM, a TGI [17] greater than 100 µM and a GI50 [18] of 3.88 µM. It also gave a TGI [18] greater than 100 µM, a GI50 [19] of 3.26 µM and a TGI [19] greater than 100 µM. It also gave a GI50 [58] of 0.832 µM, a TGI [58] greater than 100 µM and a GI50 [23] of 2.63 µM. The TGI [23] was greater than 100 µM, the GI50 [25] was 1.54 µM and the TGI [25] was greater than 100 µM. The GI50 [28] was 3.25 µM, the TGI [28] was 45.7 µM and the GI50 [30] was greater than 100 µM. It also gave a TGI [30] greater than 100 µM, a GI50 [32] of 5 µM and a TGI [32] greater than 100 µM. The GI50 [36] was 2.52 µM, the TGI [36] was 67.1 µM and the GI50 [37] was 0.882 µM. The TGI [37] was greater than 100 µM, the GI50 [38] was 2.02 µM and the TGI [38] was greater than 100 µM. For the same compound, the GI50 [39] was 3.45 µM, the TGI [39] was greater than 100 µM and the GI50 [40] was greater than 100 µM. For the same compound, the TGI [40] was greater than 100 µM, the GI50 [41] was 3.45 µM and the TGI [41] was greater than 100 µM. For the same compound, the GI50 [42] was 2.48 µM, the TGI [42] was greater than 100 µM and the GI50 [43] was 2.18 µM. It also gave a TGI [43] greater than 100 µM, a GI50 [44] of 3.22 µM and a TGI [44] greater than 100 µM. For the same compound, the GI50 [46] was 3.5 µM, the TGI [46] was greater than 100 µM and the GI50 [49] was greater than 100 µM. The TGI [49] was greater than 100 µM, the GI50 [50] was 2.75 µM and the TGI [50] was greater than 100 µM. It also gave a GI50 [51] greater than 100 µM, a TGI [51] greater than 100 µM and a GI50 [54] of 3.53 µM. It also gave a TGI [54] greater than 100 µM, a GI50 [55] of 3.49 µM and a TGI [55] greater than 100 µM. For the same compound, the GI50 [56] was greater than 100 µM, the TGI [56] was greater than 100 µM and the GI50 [57] was 0.821 µM. It also gave a TGI [57] of 8.65 µM.
